Laboratory results published in patent US10828326B2, “Compositions and methods for treating and preventing venom related poisoning” (priority 2015, dated 2020).

Test system: C. atrox venom
Assay: Isolated venom exposure to FeCl3, CORM-2 or iCORM-2, then thrombelastography in human plasma (Example VI)
Assay type: biochemical, Crotalus atrox
Conditions: in words
Method: C. atrox venom was obtained from the National Natural Toxins Research Center at Texas A&M University-Kingsville, Tex., USA. Venom was reconstituted in calcium-free phosphate buffered saline (PBS, Sigma-Aldrich, Saint Louis, Mo., USA), and stored at −80° C. Pooled human normal plasma anticoagulated with sodium citrate was obtained from George King Bio-Medical, Overland Park, Kans., USA. Ferric chloride (FeCl3, 99.9% pure), tricarbonyldichlororuthenium (II) dimer (CORM-2), and dimethyl sulfoxide (DMSO) were obtained from Sigma-Aldrich. The final concentrations of FeCl3 (dissolved in PBS) and CORM-2 (dissolved in DMSO) were 0-10 μM and 0-100 μM, respectively; these were the concentrations used in previous works involving the effects of modifying fibrinogen prior to venom exposure in plasma.
To increase the detection of effects of iron/CO on venom activity, the concentration of venom chosen for isolated exposure and for addition to plasma was twice the amount expected to eliminate coagulation based on previous work (see, Nielsen V G, Boyer L V. Iron and carbon monoxide attenuate degradation of plasmatic coagulation by Crotalus atrox venom. Blood Coagul Fibrinolysis. In press). A 1 ml quantity of a 200 μg/ml solution of venom in PBS was prepared for each condition subsequently presented. The conditions were: 1) 1% addition (v/v) of PBS and DMSO to PBS without venom; 2) 1% addition (v/v) of PBS and DMSO to PBS with venom; 3) 1% addition of FeCl3 and CORM-2 to PBS without venom; 4) 1% addition of FeCl3 and CORM-2 to PBS […]) 1% addition of FeCl3 and DMSO to PBS with venom; 6) 1% addition of CORM-2 to PBS with venom; and lastly, 7) 1% addition of PBS and iCORM-2 to PBS with venom. After 3 min of incubation at room temperature, 3.6 μl of solution from one of these conditions was placed into 326 μl of plasma and 10 μl of tissue factor reagent (0.1% final concentration in distilled water; Diagnostica Stago S.A.S., Asnieres sur Seine, France) in a disposable cup in a computer-controlled Thrombelastograph® hemostasis system (Model 5000, Haemonetics Inc., Braintree, Mass., USA). After test solution addition, 20 μl of 200 mM CaCl2 was immediately added to initiate clotting. Data were collected at 37° C. for 15 min. […] 2014; 25(8):801-805) were determined: time to maximum rate of thrombus generation (TMRTG): this is the time interval (min) observed prior to maximum speed of clot growth; maximum rate of thrombus generation (MRTG): this is the maximum velocity of clot growth observed (dynes/cm^2/sec); and total thrombus generation (TTG, dynes/cm^2), the final viscoelastic resistance observed after clot formation. […]

Compound: [Cl][Fe]([Cl])[Cl] [iron, ferric chloride]
- effects on C. atrox venom activity on plasmatic coagulation (isolated venom exposure): no appreciable effects
- coagulation kinetic parameters of plasma after addition of PBS with venom exposed to the agent (venom 2 μg/ml final, 10 μM FeCl3, 100 μM CORM-2 or iCORM-2): absence of coagulation not different from samples exposed to venom alone
